Reference: US10294202B2, “Pyrrolidinones as herbicides” (FMC Corporation, priority 2013, dated 2019)

Key:
[1] = tested on: barnyardgrass; assay: Test A pre-/postemergence herbicide test; type: in vivo, Echinochloa crus-galli
How it was run: (§1)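 Visual injury ratings, 0 = no effect, 100 = complete control, taken ~10 days after treatment against untreated greenhouse controls. Preemergence: directed soil spray onto seeded loam/sand pots. Postemergence: spray onto plants at one- to two-leaf stage, 2–10 cm tall.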

[2] = tested on: crabgrass, large; assay: Test A pre-/postemergence herbicide test; type: in vivo, Digitaria sanguinalis
How it was run: as §1

[3] = tested on: giant foxtail; assay: Test A pre-/postemergence herbicide test; type: in vivo, Setaria faberii
How it was run: as §1

[4] = tested on: morningglory; assay: Test A pre-/postemergence herbicide test; type: in vivo, Ipomoea spp.
How it was run: as §1

[5] = tested on: pigweed; assay: Test A pre-/postemergence herbicide test; type: in vivo, Amaranthus retroflexus
How it was run: as §1

[6] = tested on: velvetleaf; assay: Test A pre-/postemergence herbicide test; type: in vivo, Abutilon theophrasti
How it was run: as §1

[7] = tested on: wheat; assay: Test A pre-/postemergence herbicide test; type: in vivo, Triticum aestivum
How it was run: as §1

[8] = tested on: corn; assay: Test A pre-/postemergence herbicide test; type: in vivo, Zea mays
How it was run: as §1

[9] = tested on: rice; assay: Test B flooded paddy test; type: in vivo, Oryza sativa; conditions: Flood, scale of 0 to 100 where 0 is no effect and 100 is complete control
How it was run: (§2)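 Paddy-water application at a 3 cm flood, young plants having two leaves. Water level maintained; greenhouse, 13–15 days; visual 0–100 control rating.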

[10] = tested on: sedge, umbrella; assay: Test B flooded paddy test; type: in vivo, Cyperus difformis; conditions: Flood, scale of 0 to 100 where 0 is no effect and 100 is complete control
How it was run: as §2

[11] = tested on: ducksalad; assay: Test B flooded paddy test; type: in vivo, Heteranthera limosa; conditions: Flood, scale of 0 to 100 where 0 is no effect and 100 is complete control
How it was run: as §2

[12] = tested on: barnyardgrass; assay: Test B flooded paddy test; type: in vivo, Echinochloa crus-galli; conditions: Flood, scale of 0 to 100 where 0 is no effect and 100 is complete control
How it was run: as §2

[13] = Postemergence, 1000 g ai/ha, 0 to 100 scale (0 no effect, 100 complete control)
[14] = preemergence, 1000 g ai/ha, 0 to 100 scale
[15] = 125 g ai/ha, visual rating, 0 to 100 scale, 0 no effect, 100 complete control, approximately 10 days, preemergence
[16] = Postemergence, 125 g ai/ha, 0 to 100 scale, 0 is no effect, 100 is complete control
[17] = preemergence, 500 g ai/ha, 0 to 100 scale, 0 is no effect and 100 is complete control
[18] = Postemergence, 500 g ai/ha, 0 to 100 scale (0 no effect, 100 complete control)
[19] = Preemergence, 125 g ai/ha, 0 to 100 scale where 0 is no effect and 100 is complete control

SMILES	Plant response rating, Rice ([9]; 1000 g ai/ha)	Plant response rating, Sedge, Umbrella ([10]; 1000 g ai/ha)	Plant response rating, Ducksalad ([11]; 1000 g ai/ha)	Plant response rating, Barnyardgrass ([12]; 1000 g ai/ha)	Plant response rating, Barnyardgrass [1, 16]	Plant response rating, Barnyardgrass [1, 17]	Plant response rating, Crabgrass, Large [2, 16]	Plant response rating, Crabgrass, Large [2, 17]	Plant response rating, Foxtail, Giant [3, 16]	Plant response rating, Foxtail, Giant [3, 17]	Plant response rating, Morningglory [4, 16]	Plant response rating, Morningglory [4, 17]	Plant response rating, Pigweed [5, 16]	Plant response rating, Pigweed [5, 17]	Plant response rating, Velvetleaf [6, 16]	Plant response rating, Velvetleaf [6, 17]	Plant response rating, Wheat [7, 16]	Plant response rating, Wheat [7, 17]	Plant response rating, Corn [8, 16]	Plant response rating, Corn [8, 17]	also measured
O=C1NCC(c2ccc(F)c(F)c2)C1C(=O)Nc1cccnc1F (racemic) [Compound 105]	10	0	90	25	–	–	–	–	–	–	–	–	–	–	–	–	–	–	–	–	Plant response rating, Barnyardgrass [1, 13]: 90; Plant response rating, Barnyardgrass ([1]; preemergence, 1000 g ai/ha, 0 to 100 scale (0 no effect, 100 complete control)): 90; Plant response rating, Crabgrass, Large [2, 13]: 90; Plant response rating, Crabgrass, Large [2, 14]: 90; Plant response rating, Foxtail, Giant [3, 13]: 80; Plant response rating, Foxtail, Giant [3, 14]: 90; Plant response rating, Morningglory [4, 13]: 10; Plant response rating, Morningglory [4, 14]: 0; Plant response rating, Pigweed [5, 13]: 0; Plant response rating, Pigweed [5, 14]: 0; Plant response rating, Velvetleaf [6, 13]: 10; Plant response rating, Velvetleaf [6, 14]: 0; Plant response rating, Wheat [7, 13]: 0; Plant response rating, Wheat [7, 14]: 0; Plant response rating, Corn [8, 13]: 0; Plant response rating, Corn [8, 14]: 0
COc1ccc(C2CNC(=O)C2C(=O)Nc2ccccc2F)cc1F (racemic) [Compound 197]	10	0	75	30	30	70	50	100	0	80	0	0	0	0	0	0	0	0	0	0	Plant response rating, Barnyardgrass [1, 15]: 0; Barnyardgrass plant response rating (0 to 100 scale, 0 is no effect, 100 is complete control) ([1]; Postemergence, 500 g ai/ha): 70; Plant response rating, Crabgrass, Large [2, 15]: 80; Crabgrass, Large plant response rating (0 to 100 scale, 0 is no effect, 100 is complete control) ([2]; Postemergence, 500 g ai/ha): 70; Plant response rating, Foxtail, Giant [3, 15]: 30; Foxtail, Giant plant response rating (0 to 100 scale, 0 is no effect, 100 is complete control) ([3]; Postemergence, 500 g ai/ha): 40; Plant response rating, Morningglory [4, 15]: 0; Morningglory plant response rating (0 to 100 scale, 0 is no effect, 100 is complete control) ([4]; Postemergence, 500 g ai/ha): 10; Plant response rating, Pigweed [5, 15]: 0; Pigweed plant response rating (0 to 100 scale, 0 is no effect, 100 is complete control) ([5]; Postemergence, 500 g ai/ha): 0; Plant response rating, Velvetleaf [6, 15]: 0; Velvetleaf plant response rating (0 to 100 scale, 0 is no effect, 100 is complete control) ([6]; Postemergence, 500 g ai/ha): 0; Plant response rating, Wheat [7, 15]: 0; Wheat plant response rating (0 to 100 scale, 0 is no effect, 100 is complete control) ([7]; Postemergence, 500 g ai/ha): 0; Plant response rating, Corn [8, 15]: 0; Corn plant response rating (0 to 100 scale, 0 is no effect, 100 is complete control) ([8]; Postemergence, 500 g ai/ha): 0; Plant response rating, Rice ([9]; 250 g ai/ha): 0; Plant response rating, Sedge, Umbrella ([10]; 250 g ai/ha): 0; Plant response rating, Ducksalad ([11]; 250 g ai/ha): 0; Plant response rating, Barnyardgrass ([12]; 250 g ai/ha): 0
O=C1NCC(c2ccc(C(F)(F)F)c(F)c2)C1C(=O)Nc1ccccc1C(F)(F)F (racemic) [Compound 248]	0	0	95	55	20	80	50	90	30	90	0	0	0	0	0	0	0	0	0	0	Plant response rating, Barnyardgrass [1, 18]: 50; Plant response rating, Barnyardgrass [1, 19]: 30; Plant response rating, Crabgrass, Large [2, 18]: 70; Plant response rating, Crabgrass, Large [2, 19]: 90; Plant response rating, Foxtail, Giant [3, 18]: 50; Plant response rating, Foxtail, Giant [3, 19]: 80; Plant response rating, Morningglory [4, 18]: 0; Plant response rating, Morningglory [4, 19]: 0; Plant response rating, Pigweed [5, 18]: 0; Plant response rating, Pigweed [5, 19]: 0; Plant response rating, Velvetleaf [6, 18]: 0; Plant response rating, Velvetleaf [6, 19]: 0; Plant response rating, Wheat [7, 18]: 0; Plant response rating, Wheat [7, 19]: 0; Plant response rating, Corn [8, 18]: 20; Plant response rating, Corn [8, 19]: 0
O=C1NCC(c2ccc(C(F)(F)F)c(Cl)c2)C1C(=O)Nc1ccccc1F (racemic) [Compound 249]	15	40	85	55	30	80	0	90	20	90	0	0	0	0	0	0	0	0	0	0	Plant response rating, Barnyardgrass [1, 18]: 50; Plant response rating, Barnyardgrass [1, 19]: 50; Plant response rating, Crabgrass, Large [2, 18]: 40; Plant response rating, Crabgrass, Large [2, 19]: 80; Plant response rating, Foxtail, Giant [3, 18]: 40; Plant response rating, Foxtail, Giant [3, 19]: 50; Plant response rating, Morningglory [4, 18]: 0; Plant response rating, Morningglory [4, 19]: 0; Plant response rating, Pigweed [5, 18]: 0; Plant response rating, Pigweed [5, 19]: 0; Plant response rating, Velvetleaf [6, 18]: 0; Plant response rating, Velvetleaf [6, 19]: 0; Plant response rating, Wheat [7, 18]: 0; Plant response rating, Wheat [7, 19]: 0; Plant response rating, Corn [8, 18]: 0; Plant response rating, Corn [8, 19]: 0
O=C1NCC(c2ccc(C(F)(F)F)c(Cl)c2)C1C(=O)Nc1cccc(F)c1F (racemic) [Compound 250]	0	0	80	0	30	80	0	90	30	80	0	0	0	0	0	0	0	0	0	0	Plant response rating, Barnyardgrass [1, 18]: 50; Plant response rating, Barnyardgrass [1, 19]: 20; Plant response rating, Crabgrass, Large [2, 18]: 40; Plant response rating, Crabgrass, Large [2, 19]: 80; Plant response rating, Foxtail, Giant [3, 18]: 50; Plant response rating, Foxtail, Giant [3, 19]: 50; Plant response rating, Morningglory [4, 18]: 0; Plant response rating, Morningglory [4, 19]: 0; Plant response rating, Pigweed [5, 18]: 0; Plant response rating, Pigweed [5, 19]: 0; Plant response rating, Velvetleaf [6, 18]: 0; Plant response rating, Velvetleaf [6, 19]: 0; Plant response rating, Wheat [7, 18]: 0; Plant response rating, Wheat [7, 19]: 0; Plant response rating, Corn [8, 18]: 0; Plant response rating, Corn [8, 19]: 0
